According to patent US7566712B2, “Biaryl piperazinyl-pyridine analogues” (Neurogen Corporation, priority 2003, dated 2009):

Target: T1, human capsaicin receptor (Homo sapiens, UniProt Q8NER1)
T1 construct: pBK-CMV expression construct encoding the full length human capsaicin receptor; expressed in transfected cells
Assay: Calcium mobilization assay, determination of antagonist activity (Example 6)
Format: cell-based
Conditions: Table II; determined as described in Example 6 (antagonist activity); "*" = 1 micromolar or less
How it was run: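 Antagonism measured as inhibition of capsaicin-evoked (final concentration = EC50, from an 8-point 1 nM–3 μM curve) Fluo-3 calcium signal in stable hVR1-HEK293 cells. Test compounds at 1–5 μM final, 0.5–6 h dark preincubation at room temperature. IC50 = concentration giving 50% reduction versus agonist-only response.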

T1 sequence (Q8NER1 whole entry): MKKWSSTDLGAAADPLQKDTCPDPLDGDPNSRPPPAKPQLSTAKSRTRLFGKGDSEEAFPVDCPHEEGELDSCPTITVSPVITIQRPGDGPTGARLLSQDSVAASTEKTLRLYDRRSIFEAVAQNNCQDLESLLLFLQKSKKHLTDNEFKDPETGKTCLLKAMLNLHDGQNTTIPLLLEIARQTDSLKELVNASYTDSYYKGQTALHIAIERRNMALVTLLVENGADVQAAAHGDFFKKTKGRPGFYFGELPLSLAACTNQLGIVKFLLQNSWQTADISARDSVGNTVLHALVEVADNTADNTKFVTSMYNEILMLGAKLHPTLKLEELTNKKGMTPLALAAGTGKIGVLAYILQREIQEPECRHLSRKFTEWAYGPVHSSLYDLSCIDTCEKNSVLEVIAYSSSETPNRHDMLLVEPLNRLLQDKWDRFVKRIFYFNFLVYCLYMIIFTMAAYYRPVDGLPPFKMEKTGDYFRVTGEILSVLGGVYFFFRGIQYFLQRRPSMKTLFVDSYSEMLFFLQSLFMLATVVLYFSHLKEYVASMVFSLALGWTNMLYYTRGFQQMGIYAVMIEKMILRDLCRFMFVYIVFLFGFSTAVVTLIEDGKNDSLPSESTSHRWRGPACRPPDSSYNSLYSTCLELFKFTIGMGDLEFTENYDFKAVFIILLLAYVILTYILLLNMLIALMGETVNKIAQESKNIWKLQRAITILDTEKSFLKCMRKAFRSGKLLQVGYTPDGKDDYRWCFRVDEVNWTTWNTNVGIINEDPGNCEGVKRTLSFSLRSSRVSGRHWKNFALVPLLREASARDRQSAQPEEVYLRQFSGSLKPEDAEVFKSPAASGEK

Row | IC50 | SMILES
1 | ≤ 1000 nM | C[C@@H]1CN(c2ccncc2Cl)CCN1c1cc(-c2ccc(F)c(F)c2)nc(Cl)n1 [Example 826, 2-chloro-4-[(2R)-4-(3-chloropyridin-4-yl)-2-methylpiperazin-1-yl]-6-(3,4-difluorophenyl)pyrimidine]
2 | ≤ 1000 nM | CC1CCCN1c1nc(-c2ccc(F)c(F)c2)cc(N2CCN(c3ccncc3Cl)C[C@H]2C)n1 (stereo partly shown) [Example 828, 4-[4-(3-chloropyridin-4-yl)-2-methylpiperazin-1-yl]-6-(3,4-difluorophenyl)-2-(2-methylpyrrolidin-1-yl)pyrimidine]
3 | ≤ 1000 nM | C[C@@H]1CN(c2ccncc2Cl)CCN1c1cc(-c2ccc(F)c(F)c2)nc(N2CCCC2)n1 [Example 829, 4-[(2R)-4-(3-chloropyridin-4-yl)-2-methylpiperazin-1-yl]-6-(3,4-difluorophenyl)-2-pyrrolidin-1-ylpyrimidine]
4 | ≤ 1000 nM | Fc1ccc(-c2cc(N3CCN(c4ncccc4C(F)(F)F)CC3)nc(-c3ccccn3)n2)cc1Cl [Example 830, 4-(3-chloro-4-fluorophenyl)-2-pyridin-2-yl-6-{4-[3-(trifluoromethyl)pyridin-2-yl]piperazin-1-yl}pyrimidine]
5 | ≤ 1000 nM | CCCN1CC[C@H](N(C)c2nc(-c3ccc(F)c(C)c3)cc(N3CCN(c4ncccc4C(F)(F)F)CC3)n2)C1 [Example 831, 4-(4-fluoro-3-methylphenyl)-N-methyl-N-[(3S)-1-propylpyrrolidin-3-yl]-6-{4-[3-(trifluoromethyl)pyridin-2-yl]piperazin-1-yl}pyrimidin-2-amine]
6 | ≤ 1000 nM | O=C(O)C1CCCCN1c1nc(-c2ccc(F)c(Cl)c2)cc(N2CCN(c3ncccc3C(F)(F)F)CC2)n1 (stereo not shown) [Example 832, 1-(4-(3-chloro-4-fluorophenyl)-6-{4-[3-(trifluoromethyl)pyridin-2-yl]piperazin-1-yl}pyrimidin-2-yl)piperidine-2-carboxylic acid]
7 | ≤ 1000 nM | C[C@@H]1CN(c2ncccc2Cl)CCN1c1cc(-c2ccc(Cl)c(F)c2)nc(N2CCCC2)n1 [Example 833, 4-(4-chloro-3-fluorophenyl)-6-[(2R)-4-(3-chloropyridin-2-yl)-2-methylpiperazin-1-yl]-2-pyrrolidin-1-ylpyrimidine]
8 | ≤ 1000 nM | CC1CCCN1c1nc(-c2ccc(Cl)c(F)c2)cc(N2CCN(c3ncccc3Cl)C[C@H]2C)n1 (stereo partly shown) [Example 834, 4-(4-chloro-3-fluorophenyl)-6-[4-(3-chloropyridin-2-yl)-2-methylpiperazin-1-yl]-2-(2-methylpyrrolidin-1-yl)pyrimidine]
9 | ≤ 1000 nM | C[C@@H]1CN(c2ncccc2Cl)CCN1c1cc(-c2ccc(Cl)c(F)c2)nc(N2CCOCC2)n1 [Example 835, 4-{4-(4-chloro-3-fluorophenyl)-6-[(2R)-4-(3-chloropyridin-2-yl)-2-methylpiperazin-1-yl]pyrimidin-2-yl}morpholine]
10 | ≤ 1000 nM | CC1CCCN1c1nc(-c2ccc3c(c2)CN(C)CC3(C)C)cc(N2CCN(c3ncccc3C(F)(F)F)CC2)n1 (stereo not shown) [Example 836, 2,4,4-trimethyl-7-(2-(2-methylpyrrolidin-1-yl)-6-{4-[3-(trifluoromethyl)pyridin-2-yl]piperazin-1-yl}pyrimidin-4-yl)-1,2,3,4-tetrahydroisoquinoline]
11 | ≤ 1000 nM | C[C@@H]1CN(c2ncccc2Cl)CCN1c1cc(-c2cncc(Cl)c2)nc(N2CCOCC2)n1 [Example 837, 4-{4-(5-chloropyridin-3-yl)-6-[(2R)-4-(3-chloropyridin-2-yl)-2-methylpiperazin-1-yl]pyrimidin-2-yl}morpholine]
12 | ≤ 1000 nM | CCCN1CCN(c2nc(-c3cncc(Cl)c3)cc(N3CCN(c4ncccc4Cl)C[C@H]3C)n2)CC1 [Example 838, 4-(5-chloropyridin-3-yl)-6-[(2R)-4-(3-chloropyridin-2-yl)-2-methylpiperazin-1-yl]-2-(4-propylpiperazin-1-yl)pyrimidine]
13 | ≤ 1000 nM | COC[C@@H]1CCCN1c1nc(-c2ccc(F)cc2)cc(N2CCN(c3ncccc3Cl)C[C@H]2C)n1 [Example 843, 4-[(2R)-4-(3-chloropyridin-2-yl)-2-methylpiperazin-1-yl]-6-(4-fluorophenyl)-2-[(2S)-2-(methoxymethyl)pyrrolidin-1-yl]pyrimidine]
14 | ≤ 1000 nM | C[C@@H]1CN(c2ncccc2Cl)CCN1c1cc(-c2ccc(F)cc2)nc(N2CCCCC2)n1 [Example 844, 4-[(2R)-4-(3-chloropyridin-2-yl)-2-methylpiperazin-1-yl]-6-(4-fluorophenyl)-2-piperidin-1-ylpyrimidine]
15 | ≤ 1000 nM | C[C@@H]1CN(c2ncccc2Cl)CCN1c1cc(-c2ccc(F)cc2)nc(N2CCOCC2)n1 [Example 845, 4-[4-[(2R)-4-(3-chloropyridin-2-yl)-2-methylpiperazin-1-yl]-6-(4-fluorophenyl)pyrimidin-2-yl]morpholine]
16 | ≤ 1000 nM | CC(=O)c1nc(-c2ccc(F)c(C(C)=O)c2)cc(N2CCN(c3ncccc3C(F)(F)F)CC2)n1 [Example 846, 1-(4-(3-acetyl-4-fluorophenyl)-6-{4-[3-(trifluoromethyl)pyridin-2-yl]piperazin-1-yl}pyrimidin-2-yl)ethanone]

Row | IC50 | SMILES
17 | ≤ 1000 nM | C[C@@H]1CN(c2ncccc2Cl)CCN1c1cc(-c2ccc(C#N)cc2)nc(S(C)(=O)=O)n1 [Example 847, 4-[6-[(2R)-4-(3-chloropyridin-2-yl)-2-methylpiperazin-1-yl]-2-(methylsulfonyi)pyrimidin-4-yl]benzonitrile]
18 | ≤ 1000 nM | O=C(O)CCc1cccc(-c2cc(N3CCN(c4ncccc4C(F)(F)F)CC3)nc(N3CCOCC3)n2)c1 [Example 848, 3-(3-(2-morpholin-4-yl-6-{4-[3-(trifluoromethyl)pyridin-2-yl]piperazin-1-yl}pyrimidin-4-yl)phenyl]propanoic acid]
19 | ≤ 1000 nM | O=C(O)CCc1ccc(-c2cc(N3CCN(c4ncccc4C(F)(F)F)CC3)nc(N3CCOCC3)n2)cc1 [Example 849, 3-[4-(2-morpholin-4-yl-6-{4-[3-(trifluorormethyl)pyridin-2-yl]piperazin-1-yl}pyrimidin-4-yl)phenyl]propanoic acid]
20 | ≤ 1000 nM | OCCCc1cccc(-c2cc(N3CCN(c4ncccc4C(F)(F)F)CC3)nc(N3CCOCC3)n2)c1 [Example 850, 3-[3-(2-morpholin-4-yl-6-{4-[3-(trifluoromethyl)pyridin-2-yl]piperazan-1-yl}pyrimidin-4-yl)phenyi]propan-1-ol]
21 | ≤ 1000 nM | CN(C)CCCc1cccc(-c2cc(N3CCN(c4ncccc4C(F)(F)F)CC3)nc(N3CCOCC3)n2)c1 [Example 851, N,N-dimethyl-3-[3-(2-morpholin-4-yl-6-{4-[3-(trifluoromethyl)pyridin-2-yl]piperazin-1-yl}pyrimidin-4-yl)phenyl]propan-1-amine]
22 | ≤ 1000 nM | Cc1cccnc1N1CCN(c2cc(-c3ccc(F)c(Cl)c3)nc(N3CCOCC3)n2)[C@H](C)C1 [Example 852, 4-{4-(3-chloro-4-fluorophenyl)-6-[(2R)-2-methyl-4-(3-methylpyridin-2-yl)piperazin-1-yl]pyrimidin-2-yl}morpholine]
23 | ≤ 1000 nM | CC1CCCN1c1nc(-c2ccc(F)c(Cl)c2)cc(N2CCN(c3ncccc3Cl)CC2=O)n1 (stereo not shown) [Example 853, 1-[6-(3-chloro-4-fluorophenyl)-2-(2-methylpyrrolidin-1-yl)pyrimidin-4-yl]-4-(3-chloropyridin-2-yl)piperazin-2-one]
24 | ≤ 1000 nM | COC[C@@H]1CCCN1c1nc(-c2cncc(Cl)c2)cc(N2CCN(c3ncccc3Cl)C[C@H]2C)n1 [Example 854, 4-(5-chloropyridin-3-yl)-6-[(2R)-4-(3-chloropyridin-2-yl)-2-methylpiperazin-1-yl]-2-[(2S)-2-(methoxymethyl)pyrrolidin-1-yl]pyrimidine]
25 | ≤ 1000 nM | CC1CCN1c1nc(-c2cncc(Cl)c2)cc(N2CCN(c3ncccc3Cl)C[C@H]2C)n1 (stereo partly shown) [Example 855, 4-(5-chloropyridin-3-yl)-6-[4-(3-chloropyridin-2-yl)-2-methylpiperazin-1-yl]-2-(2-methylazetidin-1-yl)pyrimidine]
26 | ≤ 1000 nM | CC(=O)c1ccc(-c2cc(N3CCN(c4ncccc4Cl)C[C@H]3C)nc(N3CCCC3)n2)cc1 [Example 856, 1-(4-{6-[(2R)-4-(3-chloropyridin-2-yl)-2-methylpiperazin-1-yl]-2-pyrrolidin-1-ylpyrimidin-4-yl)phenyl)ethanone]
27 | ≤ 1000 nM | CC(=O)c1ccc(-c2cc(N3CCN(c4ncccc4Cl)C[C@H]3C)nc(N3CCCC3C)n2)cc1 (stereo partly shown) [Example 857, 1-{4-[6-[4-(3-chloropyridin-2-yl)-2-methylpiperazin-1-yl]-2-(2-methylpyrrolidin-1-yl)pyrimidin-4-yl]phenyl}ethanone]
28 | ≤ 1000 nM | CC(=O)c1ccc(-c2cc(N3CCN(c4ncccc4Cl)C[C@H]3C)nc(N3CCOCC3)n2)cc1 [Example 858, 1-(4-{6-[(2R)-4-(3-chloropyridin-2-yl)-2-methylpiperazin-1-yl]-2-morpholin-4-ylpyrimidin-4-yl}phenyl)ethanone]
29 | ≤ 1000 nM | CC1CCCN1c1nc(-c2ccc(C#N)cc2)cc(N2CCN(c3ncccc3Cl)C[C@H]2C)n1 (stereo partly shown) [Example 859, 4-[6-[4-(3-chloropyridin-2-yl)-2-methylpiperazin-1-yl]-2-(2-methylpyrrolidin-1-yl)pyrimidin-4-yl]benzonitrile]
30 | ≤ 1000 nM | C[C@@H]1CN(c2ncccc2Cl)CCN1c1cc(-c2ccc(C#N)cc2)nc(N2CCCC2)n1 [Example 860, 4-{6-[(2R)-4-(3-chloropyridin-2-yl)-2-methylpiperazin-1-yl]-2-pyrrolidin-1-ylpyrimidin-4-yl}benzonitrite]
31 | ≤ 1000 nM | C[C@@H]1CN(c2ncccc2Cl)CCN1c1cc(-c2ccc(C#N)cc2)nc(N2CCOCC2)n1 [Example 861, 4-{6-[(2R)-4-(3-chloropyridin-2-yl)-2-methylpiperazin-1-yl]-2-morpholin-4-ylpyrimidin-4-yl}benzonitrile]
